Results on three molecules are retold here after PubChem BioAssay AID1435 (PCMD, 2008).

The source made the active and inactive calls. The rule behind the calls is not given here.

For this experiment, the target named is DNA repair protein RAD51 homolog 1 (Homo sapiens) (UniProt Q06609). Nature of the experiment: concentration-dependent blocking of RAD51 activity – biochemical, homologous recombination, fluorescence, dose response (AID 1435). The note with it: RAD51 homologous recombination biochemical assay.
Chain of DNA repair protein RAD51 homolog 1 (Homo sapiens) (Q06609 whole entry, looked up): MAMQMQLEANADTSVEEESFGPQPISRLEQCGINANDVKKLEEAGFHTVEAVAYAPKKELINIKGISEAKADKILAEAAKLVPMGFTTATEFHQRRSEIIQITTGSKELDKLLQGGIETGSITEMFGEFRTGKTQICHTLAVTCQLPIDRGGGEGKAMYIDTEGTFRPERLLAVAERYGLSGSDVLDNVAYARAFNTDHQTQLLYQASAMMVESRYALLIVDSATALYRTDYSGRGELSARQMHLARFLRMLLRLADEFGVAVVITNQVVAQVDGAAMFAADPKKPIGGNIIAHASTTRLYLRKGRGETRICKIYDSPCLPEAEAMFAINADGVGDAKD
Regarding `CCCCCOCC1CC(C/C(C)=N/Nc2nc(-c3ccccc3)cs2)C(=O)O1` (stereo not drawn), the IC50 – broadly, the concentration that inhibits the measured activity by half – is > 85 µM (inactive).

As to `COC(=O)/C(=C\Nc1cccc(Cl)c1C)c1ncc(C(F)(F)F)cc1Cl`, the IC50 is > 85 µM (inactive). For `COc1cccc2c1C(=O)c1c(O)c3c(c(O)c1C2=O)C[C@@](O)(C(=O)CO)C[C@@H]3O[C@H]1C[C@H](N)[C@@H](O)[C@H](C)O1` the value was 1.4 µM.
